Assay results: patent US20130190345A1, “MATRINIC ACID/MATRINE DERIVATIVES AND PREPARATION METHODS AND USES THEREOF” (priority 2010, published 2013)
In brackets after ≈: the same amount, converted by molar mass.

What was measured:
Type in all cases: cell-based
HCV = test: Inhibition effects of compounds on HCV in Huh7.5 cultured cell after HCV infection; conditions: for anti-HCV activity (HCV nucleoprotein and Hsc70 protein levels): HCV-infected Huh7.5 cells, 200 μg/mL, Western blotting (FIG. 7B); for EC50 (half effective concentration): virus not given, stands beside HCV inhibition rate
Procedure: 1×10^5/ml Huh7.5 cells (purchased from Vertex Pharmaceutical Co., USA) were inoculated in an amount of 0.1 ml on 96-well culture plate, placed in an incubator with 37° C., 5% CO2 content and saturation humidity, and cultured for 24 h, HCV virus in 45 IU/cell was used to infect Huh7.5, different drug solutions (DM122) formulated with culture medium were added, and cell control and HCV infection control were set. Cultivation was continuously performed in the incubator with 37° C., 5% CO2 content and saturation humidity for 72 h, kit for RNA extraction was used to extract intracellular RNA, one-step qRT-PCR was used to determine intracellular contents of HCV and GAPDH RNA, and the inhibition effects of drug on HCV infection was analyzed. […] In comparison with the virus control group, the inhibition effects on HCV infection upon action of different drugs were analyzed. […] This experiment was repeated for 3 times, * indicated […] in comparison with control, ** indicated p<0.01 in comparison with control.

Hsc70 [1] = test: Inhibition effects of compound on Hsc70 in Huh7.5 cultured cell (qRT-PCR, Western blotting); design: key to Hsc70 down-regulation rate (%): “—” represents no significant inhibition rate
Procedure: 2×10^5/ml Huh7.5 cells (purchased from Vertex Pharmaceutical Co., USA) were inoculated in an amount of 3 ml on 6-well culture plate, placed in an incubator with 37° C., 5% CO2 content, saturation humidity, and cultured for 24 h, added with different drug solutions (DM122) formulated with culture medium, and cell control was set. Cultivation was continuously performed in the incubator with 37° C., 5% CO2 content, saturation humidity for 24 h, a kit for RNA extraction was used to extract intracellular RNA from the cells, and one-step qRT-PCR was used to determine intracellular contents of Hsc70 and GAPDHRNA. After the cultivation of cells was performed for 48 h, the cells were digested and harvested, then the cells were split with CytoBuster™ Protein Extraction Buffer that contained many kinds of protease inhibitors, total intracellular proteins were extracted, and Western blotting was used to analyze the contents of Hsc70 and GAPDH proteins. In comparison with the cell control, the inhibition effects on Hsc70 upon action of different drugs were analyzed.

Hsc70 [2] = test: Detection of Hsc70 gene expression level upon action of compound on 2.2.15 cells (real-time fluorescent quantified PCR); design: Hsc70 mRNA / Hsc70 down-regulation rate (%): unit not given here; conditions: 2.2.15 cells; for Hsc70 mRNA: down-regulation of liver cell Hsc70 gene
Procedure: 2.2.15 cells (purchased from Vertex Pharmaceutical Co., USA) in a number of 1×10^6 were inocubated to 6-well plate, cultured in a culture medium containing 10% fetal calf serum for 24 hr, the original culture medium was discarded, replaced with a culutre medium containing 400 μg/ml OMTR, which was used as control. Compounds were firstly dissolved in MEM to form 20 mg/ml mother liquid, which was diluted with culture medium when used and then applied to cells. The compounds of Examples 1-114 were separately used for treatment for 12, 24, 36 hr, then cells were harvested for extraction of RNA and DNA, then the changes of Hsc70 mRNA and HBV DNA were detected by real-time fluorescent quantified PCR.

2.2.15 cells = test: Drug TC50 by MTT detection; conditions: Reed-Muench
Procedure: 2.2.15 cells (all cells were purchased from Vertex Pharmaceutical Co., USA) in exponential growth phase were inoculated on 96-well culture plate, 2×10^5 cells/well, added with culture media containing PFA diluted in different concentration rates, 3 wells for each diluted concentration, placed in 37° C. CO2—containing incubator and cultivated for 48 h; the supernatant was discarded, 100 μl of MTT (0.5 mg/ml) in culture medium was added, cultivation was continuously performed at 37° C. for 4 h; each well was added to 100 μl of 50% DMF-20% SDS destaining solution, stood at 37° C. overnight; ELISA was used to measure optical density at wavelength of 570 nm (0D570).
In each experiment, 3 cell control wells and 3 blank controls well were set, the results were used in formula, (cell control OD570-drug-medicated cell OD570)/cell control OD570, to calculate cell death rate (%), and Reed-Muench method was used to calculate half toxic concentration TC50.

| Molecule | HCV inhibition rate (%) (HCV; 200 ug/ml (upper data)) | HCV inhibition rate (%) (HCV; 400 ug/ml (lower data)) | Hsc70 down-regulation rate (%) (Hsc70 [1]; 200 ug/ml (upper data)) | Hsc70 down-regulation rate (%) (Hsc70 [1]; 400 ug/ml (lower data)) | CC50 (concentration to cause poisoning in half cells) (2.2.15 cells) [mg/L] | EC50 (half effective concentration) (HCV) [mg/L] | also measured |
| --- | --- | --- | --- | --- | --- | --- | --- |
| Cc1ccc([N+](=O)[O-])cc1C(=O)N1C[C@H]2CCCN3CCC[C@@H]([C@H]23)[C@H]1CCCC(=O)O [Compound L2, (5R)—N-(2-methyl-5-nitrobenzoyl)matrinic acid] | 27.9 ± 16.3 | 5.3 ± 5.1 | 76.6 ± 2.5% | 32.7 ± 5.0% |  |  |  |
| O=C(O)CCC[C@@H]1[C@H]2CCCN3CCC[C@@H](CN1C(=O)c1cccc([N+](=O)[O-])c1)[C@@H]23 [DM-121, N-(3-nitrobenzoyl) matrinic acid] |  | 14.9 ± 9.0 | — | — |  |  | Hsc70 inhibition rate (down-regulation of Hsc70 expression activity, expressed in relative OMT ratio) (Hsc70 [2]; relative to OMT (= 1)): 0.23 |
| α-interferon |  |  |  |  |  |  | anti-HCV activity (HCV nucleoprotein and Hsc70 protein levels) (HCV): capable of inhibiting HCV replication |
| O=C(O)CCCC1C2CCCN3CCCC(CN1Cc1cccc4ccccc14)C23 (stereo not drawn) [DM-148, N-(naphthyl-1-yl) methyl matrinic acid] |  |  |  |  | 529.86 (≈ 1300 µM) | >333.3 |  |
| CC(Cl)C(=O)OC1CC2C3CCCN4CCCC(CN2C(=O)C1O)C34 (stereo not drawn) [Compound 9g, 14-hydroxyl-13-2-chloropropionyloxy matrine] |  |  |  |  |  |  | Hsc70 mRNA (Hsc70 [2]): 48.6 ± 0.11; anti-HCV activity (HCV nucleoprotein and Hsc70 protein levels) (HCV): significant activity on anti-HCV |
| N#Cc1ccc(C(=O)N2CC3CCCN4CCCC(C34)C2CCCC(=O)O)cc1 (stereo not drawn) [DM-152, N-(4-cyanobenzoyl) matrinic acid] |  |  |  |  | >1000 | 125.65 (≈ 318 µM) |  |
| N#Cc1cccc(S(=O)(=O)N2CC3CCCN4CCCC(C34)C2CC=CC(=O)O)c1 (stereo not drawn) [SC-89b, N-(m-cyanobenzenesulfonyl) sophocarpinic acid] |  |  |  |  | 123.08 (≈ 287 µM) | 3.98 (≈ 9.27 µM) |  |
| O=C(O)CCC[C@@H]1[C@H]2CCCN3CCC[C@@H](CN1C(=O)c1ccc(C(F)(F)F)cc1)[C@@H]23 [DM-155, N-(4-trifluoromethylbenzoyl) matrinic acid] |  |  |  |  | >1000 | >333.33 |  |
| O=C(O)CCCC1C2CCCN3CCCC(CN1Cc1ccncc1)C23 (stereo not drawn) [DM-145, N-(pyridin-4-yl)methyl matrinic acid] |  |  |  |  | >1000 | 117.2 (≈ 328 µM) |  |
| Cc1ccc(C(=O)N2C[C@@H]3CCCN4CCC[C@@H]([C@H]34)[C@H]2CCCC(=O)O)cc1 [DM-153, N-(4-methylbenzoyl) matrinic acid] | 47.8 ± 9.4 | 29.2 ± 29.5 | 38.6 ± 15.8% | 32.6 ± 14. % |  |  |  |
| COc1ccc(C(=O)N2CC3CCCN4CCCC(C34)C2CCCC(=O)O)cc1 [Compound L11, (5R)—N-(p-methoxybenzoyl)matrinic acid] | 46.7 ± 12.7 | 61.6 ± 3.9 | 31.4 ± 12.2% | — |  |  |  |
| CC(=O)OC1CC2C3CCCN4CCCC(CN2C(=O)C1O)C34 (stereo not drawn) [Compound 9j, 14-hydroxyl-13-acetyloxy matrine] |  |  |  |  |  |  | Hsc70 mRNA (Hsc70 [2]): 54.8 ± 0.21 |
| O=C(O)CCCC1C2CCCN3CCCC(CN1C(=O)c1cccc([N+](=O)[O-])c1)C23 [Compound L9, (5R)—N-(3-nitrobenzoyl)matrinic acid] | 62.5 ± 0.3 | 68.9 ± 3.8 | 20.1 ± 11.1% | — |  |  |  |
| COc1ccc(C(=O)N2CC3CCCN4CCCC(C34)C2CCCC(=O)O)cc1 (stereo not drawn) [DM-151, N-(4-methoxybenzoyl) matrinic acid] | 20.5 ± 3.2 | 53.4 ± 5.6 | — | 11.5 ± 2.4% |  |  |  |
| CC(=O)OC1CC2C3CCCN4CCCC(CN2C(=O)C1O)C34 (stereo not drawn) [Compound 9e, 14-hydroxyl-13-acetyloxy matrine] |  |  |  |  |  |  | Hsc70 mRNA (Hsc70 [2]): 37.1 ± 0.16 |
